Assays:
[1] = target: tyrosinase (Homo sapiens, UniProt P14679); details: human melanocyte cultures; cited from earlier work
[2] = system: skin; test: Skin lightening in volunteers by Minolta Chromameter b* parameter; assay type: in vivo, human; details: for dose dependence of skin lightening efficacy: 4% versus 7% arbutin in Examples 1 and 2 base formulas
Source text: Ten volunteers between the ages of 18 and 60 years of age enrolled in the study. Volunteers included in the study were of Asian or Caucasian descent with a Fitzpatrick phototype III or above. Enrolled subjects were free of any systemic or dermatologic disorder, including a known history of allergies or other medical conditions which, in the opinion of the Medical Investigator, could interfere with the conduct of the study, interpretation of results, or increase the risk of adverse reactions. Moreover, volunteers had no clinically significant abnormal findings, based on their medical history, which may have affected study participation as determined by the investigator. Impaneled female volunteers were not pregnant (as assessed with a urine pregnancy test at the start of the study and every 4 weeks thereafter) and agreed to use suitable contraceptive methods throughout the duration of the study. All volunteers were willing to refrain from using any medications, moisturizers, sunscreens, fragrances or new personal care products/laundry detergents on the back for the duration of the study and were also willing to avoid sun exposure, on the back (ie, sunbathing), as best as possible and refrain from using tanning booths for the study duration. Furthermore, subjects agreed to avoid swimming for the entire study.
All volunteers reported to the clinical site every day, excluding weekends, for application of study products in an open label, un-blinded fashion. Study products and dosing were as follows:
All subjects had 2 cm^2 squares demarcated on their backs, with a plastic template adhered to the skin, for identification of treatment sites. […]
The safety of the formulations of Example 1 and Example 2 was assessed via Repeated Insult Patch Testing on 49 volunteers, in a separate study. All products used in the study presented herein were evaluated for safety through investigator scoring of the application sites at baseline, 4- and 8-weeks. […] Skin lightening was assessed via use of the Minolta CR-300 Chromameter® at baseline, 4- and 8-weeks. […]

tyrosinase, sequence (P14679 19-529): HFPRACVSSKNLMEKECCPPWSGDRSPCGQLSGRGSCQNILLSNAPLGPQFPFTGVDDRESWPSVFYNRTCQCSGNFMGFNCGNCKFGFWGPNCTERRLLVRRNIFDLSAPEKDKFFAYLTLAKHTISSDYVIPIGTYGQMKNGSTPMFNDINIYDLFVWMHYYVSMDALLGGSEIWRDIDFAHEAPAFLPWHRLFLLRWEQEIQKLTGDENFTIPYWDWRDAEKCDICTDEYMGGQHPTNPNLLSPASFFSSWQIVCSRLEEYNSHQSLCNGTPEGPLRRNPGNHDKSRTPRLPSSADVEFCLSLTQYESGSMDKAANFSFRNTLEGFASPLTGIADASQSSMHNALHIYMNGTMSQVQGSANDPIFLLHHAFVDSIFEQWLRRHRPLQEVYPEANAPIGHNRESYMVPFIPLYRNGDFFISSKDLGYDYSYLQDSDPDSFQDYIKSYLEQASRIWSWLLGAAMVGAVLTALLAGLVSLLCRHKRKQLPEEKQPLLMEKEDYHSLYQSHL

For OC[C@H]1O[C@@H](Oc2ccc(O)cc2)[C@H](O)[C@@H](O)[C@@H]1O [Arbutin, hydroxy phenyl-b-D-glucopyranoside], which “tyrosinase inhibiting potency relative to hydroquinone” value [1] is on record?
The value was “one-hundredth that of hydroquinone”.

What about the “dose dependence of skin lightening efficacy” value [2] of the same molecule?
The value was “dose dependent”.

And the “dose dependence of skin lightening efficacy” value ([2]; listed as arbutin)?
Its value is “dose dependant”.

What about the “skin lightening efficacy of 7% arbutin versus 4% hydroquinone” value ([2]; 7% arbutin, relatively non-photoexposed skin, formulas similar to bleaching and correcting cream and Blender bases) of the same molecule?
The value was “equally as efficacious as 4% hydroquinone”.
